Data as given in patent US20260286396A1, “AXL KNOCK OUT CAR T CELLS AND METHODS FOR USE THEREOF” (priority 2023, published 2026).

System: CART19 cells
Assay: RNA sequencing of CART19 cells with Ingenuity pathway analysis (pathways, upstream regulators)
Assay type: cell-based, human
Conditions: CART19+JeKo-1, 30 nM TP-0903 vs vehicle, 24 h
Procedure: CART19 cells were isolated using CD4 and CD8 microbeads to […] the JeKo-1 target cells; this isolation step was performed twice to eliminate the possible contamination of JeKo-1 cells. RNA was isolated from the CART19 cells using QIAGEN RNEASY® Plus Mini Kit. RNA was further treated with DNase I (QIAGEN) and purified using RNA Clean & Concentrator (Zymo Research). […] The fastq files were viewed in FastQC to check for quality (Cox et al., Mol Ther., 29 (4): 1529-1540, 2020). After verifying the lack of adapter sequences with FastQC, Cutadapt (Martin, EMBnet, 17:10-12, 2011) was used to filter for reads greater than 32 base pairs. Output files were re-checked for quality using FastQC. The latest human reference genome (GRCh38.p13) was downloaded from NCBI. Genome index files were generated using STAR (Cox et al. 2020, supra, and Dobin et al., Bioinformatics, 29:15-21, 2012). Paired end reads from fastq files were mapped to the genome for each condition. HTSeq was used to generate expression counts for each gene (Cox et al. 2020, supra; and Putri et al., Bioinformatics, 38:2943-2945, 2022). […] The disruption efficiency of the CRISPR/Cas9 GM-CSF knockout was determined using targeted sequencing through PCR and TIDE analysis (software available at tide.nki.nl) as described elsewhere (Sakemura et al. 2021, supra).
RNA sequencing of CART19 cells was then performed. […] Data were analyzed with the use of QIAGEN Ingenuity Pathway Analysis (IPA) (digitalinsights.qiagen.com/IPA; Krämer et al., Bioinformatics 30 (4): 523-530, 2014).

Compound: CN1CCN(Cc2ccc(Nc3ncc(Cl)c(Nc4ccccc4S(=O)(=O)N(C)C)n3)cc2)CC1 [TP-0903, Dubermatinib]
- ABCG1 Expr Log Ratio: −0.301
- ADORA2A Expr Log Ratio: 0.629
- ADRA1B Expr Log Ratio: −0.268
- AGPAT2 Expr Log Ratio: 0.051
- ALDH2 Expr Log Ratio: −0.892
- APP Expr Log Ratio: 0.132
- ARHGAP5 Expr Log Ratio: 0.025
- ARNT Expr Log Ratio: −0.009
- ATF3 Expr Log Ratio: −0.209
- ATF4 Expr Log Ratio: −0.52
- BCAP31 Expr Log Ratio: 0.118
- BCL3 Expr Log Ratio: 0.097
- BCL6 Expr Log Ratio: 0.021
- BMP7 Expr Log Ratio: −0.942
- BMP10 Expr Log Ratio: −1.585
- BTK Expr Log Ratio: −0.323
- C3 Expr Log Ratio: 0.511
- CALCA Expr Log Ratio: −1.865
- CCND1 Expr Log Ratio: −0.129
- CCR3 Expr Log Ratio: −0.728
- CD2 Expr Log Ratio: 0.318
- CD5 Expr Log Ratio: 0.33
- CD28 Expr Log Ratio: 0.407
- CD38 Expr Log Ratio: −0.087
- CD40LG Expr Log Ratio: 0.131
- CD44 Expr Log Ratio: 0.428
- CD48 Expr Log Ratio: 0.067
- CD274 Expr Log Ratio: −0.506
- COMMD1 Expr Log Ratio: 0.174
- DUSP10 Expr Log Ratio: 0.211
- EBF1 Expr Log Ratio: −0.235
- EDN1 Expr Log Ratio: −0.099
- EIF2AK4 Expr Log Ratio: −0.2
- EPX Expr Log Ratio: −0.176
- ERBB2 Expr Log Ratio: −0.057
- FHL2 Expr Log Ratio: 0.639
- FMR1 Expr Log Ratio: 0.099
- FYN Expr Log Ratio: 0.259
- GAS5-AS1 Expr Log Ratio: −0.022
- GNA14 Expr Log Ratio: −2.841
- HAVCR1 Expr Log Ratio: −0.121
- IGF1 Expr Log Ratio: −0.149
- IGF1R Expr Log Ratio: −0.155
- IKBKB Expr Log Ratio: −0.036
- IKZF2 Expr Log Ratio: −0.318
- IL4R Expr Log Ratio: 0.093
- IL10 Expr Log Ratio: −0.008
- IL15 Expr Log Ratio: 0.191
- IL18 Expr Log Ratio: 0.03
- IL21 Expr Log Ratio: −0.452
- INSIG1 Expr Log Ratio: −0.836
- IRF4 Expr Log Ratio: −0.587
- ITGB2 Expr Log Ratio: 0.114
- KDM1A Expr Log Ratio: 0.09
- KRAS Expr Log Ratio: 0.11
- LEF1 Expr Log Ratio: 0.105
- LGALS3 Expr Log Ratio: −0.014
- LTA Expr Log Ratio: 0.37
- LTBR Expr Log Ratio: 0.08
- MAPK3 Expr Log Ratio: −0.166
- MAPK7 Expr Log Ratio: −0.017
- MBP Expr Log Ratio: 0.105
- MED1 Expr Log Ratio: −0.112
- MIR-29 Expr Log Ratio: −3.808
- MYB Expr Log Ratio: −0.03
- MYDGF Expr Log Ratio: −0.06
- NFATC1 Expr Log Ratio: 0.232
- NFE2L2 Expr Log Ratio: 0.172
- NFIL3 Expr Log Ratio: −0.13
- NFKBIA Expr Log Ratio: 0.173
- NPAT Expr Log Ratio: −0.021
- NR4A2 Expr Log Ratio: 0.982
- NREP Expr Log Ratio: −0.21
- PAF1 Expr Log Ratio: 0.135
- PDCD1 Expr Log Ratio: 0.967
- POU2F1 Expr Log Ratio: −0.356
- PRDM1 Expr Log Ratio: −0.006
- PRKCZ Expr Log Ratio: 0.36
- PTEN Expr Log Ratio: 1.201
- PTPRJ Expr Log Ratio: 0.044
- RAD21L1 Expr Log Ratio: 0.844
- RAMP1 Expr Log Ratio: −0.296
- RRP1B Expr Log Ratio: −0.087
- RXRA Expr Log Ratio: −0.75
- SATB2 Expr Log Ratio: −0.715
- SIRT6 Expr Log Ratio: −0.028
- SMAD2 Expr Log Ratio: −0.395
- SMAD7 Expr Log Ratio: 0.057
- SMC1B Expr Log Ratio: −0.146
- SNCA Expr Log Ratio: 1.134
- SORL1 Expr Log Ratio: 0.047
- SPI1 Expr Log Ratio: −0.215
- SREBF1 Expr Log Ratio: −0.191
- SREBF2 Expr Log Ratio: −0.048
- STAG3 Expr Log Ratio: −0.19
- STARD7 Expr Log Ratio: −0.076
- SUCNR1 Expr Log Ratio: −1.022
- TEAD3 Expr Log Ratio: −0.396
- TERT Expr Log Ratio: −0.599
- TGFB1 Expr Log Ratio: −0.094
- TGFB3 Expr Log Ratio: 0.178
- TGFBR2 Expr Log Ratio: 0.18
- TLR2 Expr Log Ratio: 0.013
- TLR7 Expr Log Ratio: −1.275
- TNFRSF4 Expr Log Ratio: 0.263
- TNFSF15 Expr Log Ratio: 1.42
- TPH1 Expr Log Ratio: 0.019
- TRAF3 Expr Log Ratio: 0.022
- WNT5B Expr Log Ratio: −0.491
- YAP1 Expr Log Ratio: −0.546
- upstream regulator ABCG1 Activation Z-Score: 1.387
- upstream regulator ADORA2A Activation Z-Score: −0.245
- upstream regulator AGPAT2 Activation Z-Score: 1
